# Assay results as given in the Kinase Knowledgebase extract (Sharma et al. 2016).
# Target: CDK2 (UniProt P24941)
# Assay: Enzyme Assay
# Settings: not given
row,SMILES,IC50 [µM]
1,COC(=O)CCC#Cc1c(N)ccc2c1/C(=C/c1[nH]ccc1OC)C(=O)N2,< 4
2,C#CCOCCO,< 4
3,CNCC#Cc1c(F)ccc2c1/C(=C/c1[nH]cnc1C)C(=O)N2,< 4
4,COCC#Cc1cccc2c1/C(=C/c1[nH]ccc1OC)C(=O)N2,< 4
5,CCC(O)C#Cc1cccc2c1/C(=C/c1[nH]ccc1OC)C(=O)N2 (configuration not stated),< 4
6,COc1cc[nH]c1/C=C1\C(=O)Nc2ccc(NC(=O)c3ccncc3)c(C#CCO)c21,< 4
7,CCC(C)(O)C#Cc1cccc2c1/C(=C/c1[nH]ccc1OC)C(=O)N2 (configuration not stated),< 4
8,COc1cc[nH]c1/C=C1\C(=O)Nc2cccc(C#CC(C)(O)CC(C)C)c21 (configuration not stated),< 4
9,COc1cc[nH]c1/C=C1\C(=O)Nc2cccc(C#CCCCCO)c21,< 4
10,CNCC#Cc1cccc2c1/C(=C/c1[nH]ccc1OC)C(=O)N2,< 4
11,Cc1nc[nH]c1/C=C1\C(=O)Nc2ccc(F)c(C#CC(C)(C)N)c21,< 4
12,COc1cc[nH]c1/C=C1\C(=O)Nc2cccc(C#CCNCc3ccccc3)c21,< 4
13,COc1cc[nH]c1/C=C1\C(=O)Nc2cccc(C#CCCC(=O)O)c21,< 4
14,COc1cc[nH]c1/C=C1\C(=O)Nc2cccc(C#CCCC(N)=O)c21,< 4
15,CCN(CC)CC#Cc1c(F)ccc2c1/C(=C/c1[nH]cnc1C)C(=O)N2,< 4
16,Cc1nc[nH]c1/C=C1\C(=O)Nc2ccc(F)c(C#CCC(C)O)c21 (configuration not stated),< 4
17,COc1cc[nH]c1/C=C1\C(=O)Nc2cccc(C#CCCCC(N)=O)c21,< 4
18,CNC(=O)OCC#Cc1cccc2c1/C(=C/c1[nH]ccc1OC)C(=O)N2,< 4
19,COc1cc[nH]c1/C=C1\C(=O)Nc2cccc(C#CC(C)(C)O)c21,< 4
20,CCOC(=O)C(CC#Cc1c(F)ccc2c1/C(=C/c1[nH]cnc1C)C(=O)N2)NC(C)=O (configuration not stated),< 4
21,COc1cc[nH]c1/C=C1\C(=O)Nc2cccc(C#CCN)c21,< 4

# More lines, now with the values ahead:
row,IC50 [µM],SMILES
1,< 4,Cc1nc[nH]c1/C=C1\C(=O)Nc2ccc(F)c(C#CCOC(N)=O)c21
2,< 4,COc1cc[nH]c1/C=C1\C(=O)Nc2cccc(C#CCCCO)c21
3,< 4,Cc1nc[nH]c1/C=C1\C(=O)Nc2ccc(F)c(C#CCO)c21
4,< 4,CCCCC[C@H](O)C#Cc1cccc2c1/C(=C/c1[nH]ccc1OC)C(=O)N2
5,< 4,CCCCCC(O)C#Cc1cccc2c1/C(=C/c1[nH]ccc1OC)C(=O)N2 (configuration not stated)
6,< 4,COC(=O)NCC#Cc1cccc2c1/C(=C/c1[nH]ccc1OC)C(=O)N2
7,< 4,COC(=O)C(CC#Cc1cccc2c1/C(=C/c1[nH]ccc1OC)C(=O)N2)C(=O)OC
8,< 4,COc1cc[nH]c1/C=C1\C(=O)Nc2cccc(C#CCCCC(=O)O)c21
9,< 4,COC(=O)CCCC#Cc1cccc2c1/C(=C/c1[nH]ccc1OC)C(=O)N2
10,< 4,COC(=O)CCC#Cc1cccc2c1/C(=C/c1[nH]ccc1OC)C(=O)N2
11,< 4,CCC(O)C#Cc1c([N+](=O)[O-])ccc2c1/C(=C/c1[nH]cnc1C)C(=O)N2 (configuration not stated)
12,< 4,COc1cc[nH]c1/C=C1\C(=O)Nc2cccc(C#CCOC(N)=O)c21
13,< 4,CCCC(C)(O)C#Cc1cccc2c1/C(=C/c1[nH]ccc1OC)C(=O)N2 (configuration not stated)
14,< 4,COc1cc[nH]c1/C=C1\C(=O)Nc2ccc(NC(=O)Cc3cccs3)c(C#CCCC(=O)O)c21
15,< 4,Cc1nc[nH]c1/C=C1\C(=O)Nc2ccc(F)c(C#CCNC(N)=O)c21
16,< 4,COc1cc[nH]c1/C=C1\C(=O)Nc2ccc(N)c(C#CCO)c21
17,< 4,COc1cc[nH]c1/C=C1\C(=O)Nc2cccc(C#CCCO)c21
18,< 4,CCC(O)C#Cc1c(F)ccc2c1/C(=C/c1[nH]cnc1C)C(=O)N2 (configuration not stated)
19,< 4,COc1cc[nH]c1/C=C1\C(=O)Nc2cccc(C#CC3(O)CCCCC3)c21
20,< 4,Cc1nc[nH]c1/C=C1\C(=O)Nc2ccc(F)c(C#CCN(C)C)c21
21,< 4,COc1cc[nH]c1/C=C1\C(=O)Nc2cccc(C#CCC(C(=O)O)C(=O)O)c21
22,< 4,COc1cc[nH]c1/C=C1\C(=O)Nc2cccc(C#CC3(O)CCCC3)c21
23,< 4,COc1cc[nH]c1/C=C1\C(=O)Nc2cccc(C#CCO)c21
24,< 4,Cc1nc[nH]c1/C=C1\C(=O)Nc2ccc(F)c(C#CCN3CCOCC3)c21

# Same assay, conditions: concentration not given here
row,inhibition [%],SMILES
1,> 60,COC(=O)CCC#Cc1c([N+](=O)[O-])ccc2c1/C(=C/c1[nH]ccc1OC)C(=O)N2
2,> 90,COC(=O)NCC#Cc1c(F)ccc2c1/C(=C/c1[nH]cnc1C)C(=O)N2
3,> 90,COc1cc[nH]c1/C=C1\C(=O)Nc2ccc([N+](=O)[O-])c(C#CCO)c21

# Target: CDK2 (human) (UniProt P24941)
# Assay: Cell-Based Assay
# Settings: mda-mb-435
row,SMILES,IC50 [µM]
1,COC(=O)NCC#Cc1c(F)ccc2c1/C(=C/c1[nH]cnc1C)C(=O)N2,< 3.5
2,Cc1nc[nH]c1/C=C1\C(=O)Nc2ccc(F)c(C#CCC(C)O)c21 (configuration not stated),< 3.5
3,CCOC(=O)C(CC#Cc1c(F)ccc2c1/C(=C/c1[nH]cnc1C)C(=O)N2)NC(C)=O (configuration not stated),< 3.5

# Other lines, results leading:
row,IC50 [µM],SMILES
1,< 3.5,CCC(O)C#Cc1c([N+](=O)[O-])ccc2c1/C(=C/c1[nH]cnc1C)C(=O)N2 (configuration not stated)
2,< 3.5,CCC(O)C#Cc1c(F)ccc2c1/C(=C/c1[nH]cnc1C)C(=O)N2 (configuration not stated)

# Same assay, conditions: sw480
row,IC50 [µM],SMILES
1,< 1,CNCC#Cc1c(F)ccc2c1/C(=C/c1[nH]cnc1C)C(=O)N2
2,< 1,CCC(O)C#Cc1c([N+](=O)[O-])ccc2c1/C(=C/c1[nH]cnc1C)C(=O)N2 (configuration not stated)
3,< 1,CCC(N)(C#Cc1c(F)ccc2c1/C(=C/c1[nH]cnc1C)C(=O)N2)CC
4,< 1,CCC(O)C#Cc1c(F)ccc2c1/C(=C/c1[nH]cnc1C)C(=O)N2 (configuration not stated)
